Data reported in patent publication US10282841B1, “Bioinformatic analysis of vascular patterning” (The United States of America as Represented by the …, priority 2011, dated 2019).
Read-outs that look alike come from different tables or passages of the source.

Columns and labels:
[1] = tested on: avian chorioallantoic membrane; type: in vivo
Text: To develop the VESGEN system mapping capabilities, proangiogenesis and antiangiogenesis factors were first studied in the avian chorioallantoic membrane, a well-established, experimentally convenient 2D, optically accessible model of microvascular remodeling, angiogenesis and angiogenesis therapeutics.

blood vessels = assay: VESGEN analysis of regulators of blood vessel growth by vessel branching generation; type: in vivo; settings: for vessel number, density or diameter for larger pre-existing vessels: larger pre-existing vessels of G1-G4
Text: The stimulator bFGF and inhibitor TGF-beta1 may be regarded as robust but simple regulators of blood vessel growth, because of their selective regulation of the growth of new small vessels. Other important regulators like vascular endothelial growth factor-165 (VEGF-165), also known as vascular permeability factor (VPF), are more complex in their regulatory activities. […] All healthy and unhealthy (abnormal) fluid shifts in the body are tightly regulated by the small vessels (vascular and lymphatic capillaries) except during trauma such as flesh wounds. The VESGEN system may support analysis of such retinal and brain vascular changes mediating the fluid shifts from images of experimental animals and clinical diagnostic images of humans.

[2] = chorioallantoic membrane, with higher concentrations

angiostatin
vascular morphology on inhibition of angiogenesis ([1]; avian chorioallantoic membrane): rendered the vascular tree highly abnormal and irregular

basic fibroblast growth factor [bFGF]
growth of small vessels ([1]; avian chorioallantoic membrane): stimulated specifically the robust growth of many small vessels
vessel number, density or diameter for larger pre-existing vessels (blood vessels): did not affect
growth of new small vessels of vessel generation G5 and greater (blood vessels): stimulation of the growth of new small vessels of vessel generation G5 and greater

transforming growth factor beta-1 [transforming growth factor (TGF) β-1]
vascular morphology on inhibition of angiogenesis ([1]; avian chorioallantoic membrane): retained a normal vascular morphology
vessel number, density or diameter for larger pre-existing vessels (blood vessels): did not affect
growth of new small vessels of vessel generation G5 and greater (blood vessels): inhibition of the growth of new small vessels of vessel generation G5 and greater

vascular endothelial growth factor-165 [VEGF]
diameter of larger vessels ([1]; avian chorioallantoic membrane, at high concentrations): significantly dilated
growth of new small vessels ([1]; avian chorioallantoic membrane, at low concentrations): stimulated the growth of new small vessels
vessel density ([1]; chorioallantoic membrane, at low concentrations): increased
diameters of larger arteries [1, 2]: increasing diameters of larger arteries
vessel density [1, 2]: progressively decreasing vessel density
vessel leakage, vessel swelling and vessel tortuosity (blood vessels; blood vessel morphology): induction of vessel leakage, vessel swelling and vessel tortuosity
growth and swelling of the associated lymphatic vascular system (blood vessels; lymphatic vascular system): stimulates the growth and swelling of the associated lymphatic vascular system
growth of new small vessels of vessel generation G5 and greater (blood vessels): stimulation of the growth of new, small blood vessels
